Reference: US12441726B2, “Compounds and uses thereof” (Foghorn Therapeutics Inc., priority 2020, dated 2025)
pIC50: −log10 of the molar value.

Tests used:
[1] = Body weight / tolerability in tumor-bearing mice; type: in vivo; conditions: all treatments, once daily oral gavage, 3 weeks; FIG. 8C
Method: Procedure: Nude mice (Envigo) were engrafted subcutaneously in the axillary region with 5×10^6 92-1 uveal melanoma cells in 50% Matrigel. Tumors were grown to a mean of ˜200 mm^3, at which point mice were grouped and dosing was initiated. […] Tumor volumes and body weights were measured over the course of 3 weeks, and doses were adjusted by body weight to achieve the proper dose in terms of mg/kg. At this time, animals were sacrificed, and tumors were dissected and imaged.

[2] = test system: Uveal melanoma cell lines, 92-1 or MP41; assay: Comparison to clinical PKC and MEK inhibitors in uveal melanoma cell lines, 3-day growth (Compound A); type: cell-based; conditions: FIG. 2A and 2B
Method: (§1) Procedure: Uveal melanoma cell lines, 92-1 or MP41, were plated in 96 well plates in the presence of growth media (see Table 26). […] Cells were incubated at 37 degrees Celsius for 3 days. After three days of treatment, cell growth was measured with Cell-titer glow (Promega), and luminescence was read on an Envision plate reader (Perkin Elmer).

[3] = test system: Uveal melanoma cell lines (92-1, MP41, MP38, MP46), hematologic cancer and other cancer cell lines; assay: Growth of uveal melanoma, hematological and other cancer cell lines, day 3 and day 7 (Cell-titer glo, GI50), Compound A; type: cell-based; conditions: FIG. 1
Method: (§2) Procedure: Uveal melanoma cell lines (92-1, MP41, MP38, MP46), prostate cancer cell lines (LNCAP), lung cancer cell lines (NCI-H1299), and immortalized embryonic kidney lines (HEK293T) were plated into 96 well plates with growth media (see Table 5). […] Cells were incubated at 37 degrees Celsius for 3 days. After three days of treatment, the media was removed from the cells and 30 microliters of TrypLE (Gibco) was added to cells for 10 minutes. Cells were detached from the plates and resuspended with the addition of 170 microliters of growth media. Cells from two DMSO-treated control wells were counted, and the initial number of cells plated at the start of the experiment, were re-plated into fresh-compound containing plates for an additional four days at 37 degrees Celsius. At day 7, cells were harvested as described above. On day 3 and day 7, relative cell growth was measured by the addition of Cell-titer glo (Promega) and luminescence was measured on an Envision plate reader (Perkin Elmer). […] At the time of cell splitting on days […], cells were split into new 96 well plates, and fresh compound was added four hours after re-plating.

[4] = test system: Uveal melanoma cell lines, 92-1 or MP41; assay: Comparison to clinical PKC and MEK inhibitors in uveal melanoma cell lines, 3-day growth (Compound B); type: cell-based; conditions: FIG. 6A and 6B
Method: as §1, with “27).” for “26).”, “37° C.” for “37 degrees Celsius”

[5] = test system: PKC inhibitor (PKCi)-resistant MP41 uveal melanoma cells; assay: 7-day growth inhibition assay, PKC inhibitor-resistant cells; type: cell-based; conditions: 7-day assay
Method: as §2
(§3) Procedure: MP41 uveal melanoma cells were made resistant to the PKC inhibitor (LXS196; MedChemExpress), by long-term culture in growth media (see Table 27) containing increasing concentrations of the compound, up to 1 micromolar.

[6] = test system: Uveal melanoma cell lines (92-1, MP41, MP38, MP46) and Non-small cell lung cancer cells (NCIH1299); assay: Growth of uveal melanoma and non-small cell lung cancer cell lines, 3 days (Cell-titer glow); type: cell-based; conditions: 0 to 10 micromolar, FIG. 5
Method: Procedure: Uveal melanoma cell lines (92-1, MP41, MP38, MP46) and Non-small cell lung cancer cells (NCIH1299) were plated into 96 well plates with growth media (see Table 27). BRG1/BRM ATPase inhibitor, compound 67, was dissolved in DMSO and added to the cells in a concentration gradient from 0 to 10 micromolar at the time of plating. Cells were incubated at 37° C. for 3 days. After three days of treatment, cell growth was measured with Cell-titer glow (Promega), and luminescence was read on an Envision plate reader (Perkin Elmer).

parental MP41 cells = assay: 7-day growth inhibition assay, parental cells; type: cell-based; conditions: 7-day assay; FIG. 7B
Method: as §2, §3

BRG-1 = BRG-1 (Homo sapiens, UniProt P51532); assay: ATPase catalytic activity assay (ADP-Glo), BRG-1; conditions: for Emax: 1 h, read-out: BRG1 Max % Inhibition, ADP-Glo, 30 nM BRG-1, 400 μM ATP
BRM = BRM (Homo sapiens, UniProt P51531); assay: ATPase catalytic activity assay (ADP-Glo), BRM; conditions: 30 nM BRM, 400 μM ATP; for IC50: BRM ATPase: IC50 (uM)
Chain of BRM (P51531 whole entry): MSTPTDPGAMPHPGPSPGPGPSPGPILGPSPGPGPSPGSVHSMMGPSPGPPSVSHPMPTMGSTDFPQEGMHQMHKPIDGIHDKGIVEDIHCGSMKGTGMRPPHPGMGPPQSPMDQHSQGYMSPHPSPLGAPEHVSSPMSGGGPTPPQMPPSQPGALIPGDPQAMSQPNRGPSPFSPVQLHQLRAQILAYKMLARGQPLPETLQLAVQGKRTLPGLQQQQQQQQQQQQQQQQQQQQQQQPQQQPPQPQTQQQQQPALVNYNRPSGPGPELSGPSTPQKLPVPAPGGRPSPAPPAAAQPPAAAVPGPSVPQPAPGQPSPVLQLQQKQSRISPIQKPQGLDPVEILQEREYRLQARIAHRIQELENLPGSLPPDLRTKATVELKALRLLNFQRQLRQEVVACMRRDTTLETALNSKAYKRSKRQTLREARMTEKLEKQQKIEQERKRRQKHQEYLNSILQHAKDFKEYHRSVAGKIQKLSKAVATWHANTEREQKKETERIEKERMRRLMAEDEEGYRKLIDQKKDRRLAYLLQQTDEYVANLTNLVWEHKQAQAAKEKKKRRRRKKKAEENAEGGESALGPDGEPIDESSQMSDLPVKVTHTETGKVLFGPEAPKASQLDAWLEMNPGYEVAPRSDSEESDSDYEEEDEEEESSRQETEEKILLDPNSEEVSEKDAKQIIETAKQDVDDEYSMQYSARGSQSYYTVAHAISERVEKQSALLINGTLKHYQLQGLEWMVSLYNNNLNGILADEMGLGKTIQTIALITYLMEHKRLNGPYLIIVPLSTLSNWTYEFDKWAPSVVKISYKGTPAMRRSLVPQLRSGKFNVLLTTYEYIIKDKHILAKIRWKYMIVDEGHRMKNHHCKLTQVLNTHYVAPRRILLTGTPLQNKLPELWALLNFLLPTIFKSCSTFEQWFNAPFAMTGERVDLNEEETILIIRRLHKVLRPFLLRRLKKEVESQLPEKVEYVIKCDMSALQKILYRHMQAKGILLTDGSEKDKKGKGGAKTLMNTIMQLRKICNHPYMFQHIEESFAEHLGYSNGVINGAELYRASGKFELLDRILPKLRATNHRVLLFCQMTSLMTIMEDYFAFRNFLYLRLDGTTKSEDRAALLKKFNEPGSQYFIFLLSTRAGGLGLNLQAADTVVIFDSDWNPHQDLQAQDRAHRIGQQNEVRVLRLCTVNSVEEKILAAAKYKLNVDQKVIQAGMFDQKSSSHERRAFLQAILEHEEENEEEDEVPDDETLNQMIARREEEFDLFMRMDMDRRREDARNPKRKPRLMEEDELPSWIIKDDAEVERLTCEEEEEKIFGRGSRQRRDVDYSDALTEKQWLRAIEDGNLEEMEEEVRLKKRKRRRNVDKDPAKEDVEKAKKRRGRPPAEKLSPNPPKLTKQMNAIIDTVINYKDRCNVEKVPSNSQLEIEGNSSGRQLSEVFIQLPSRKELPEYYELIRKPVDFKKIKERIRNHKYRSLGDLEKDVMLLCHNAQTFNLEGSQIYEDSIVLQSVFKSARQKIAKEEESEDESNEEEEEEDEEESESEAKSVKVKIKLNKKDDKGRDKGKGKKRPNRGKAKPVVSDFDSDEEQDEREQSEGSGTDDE
Method: The ATPase catalytic activity of BRM or BRG-1 was measured by an in vitro biochemical assay using ADP-Glo™ (Promega, V9102). The ADP-Glo™ kinase assay is performed in two steps once the reaction is complete. The first step is to deplete any unconsumed ATP in the reaction. The second step is to convert the reaction product ADP to ATP, which will be utilized by the luciferase to generate luminesce and be detected by a luminescence reader, such as Envision.
Then following addition of 5 μL of ADP-Glo™ Reagent provided in the kit, the reaction incubates at room temperature for 40 minutes. Then 10 μL of Kinase Detection Reagent provided in the kit is added to convert ADP to ATP, and the reaction incubates at room temperature for 60 minutes. Finally, luminescence measurement is collected with a plate-reading luminometer, such as Envision.

Chain of BRG-1 (P51532 whole entry): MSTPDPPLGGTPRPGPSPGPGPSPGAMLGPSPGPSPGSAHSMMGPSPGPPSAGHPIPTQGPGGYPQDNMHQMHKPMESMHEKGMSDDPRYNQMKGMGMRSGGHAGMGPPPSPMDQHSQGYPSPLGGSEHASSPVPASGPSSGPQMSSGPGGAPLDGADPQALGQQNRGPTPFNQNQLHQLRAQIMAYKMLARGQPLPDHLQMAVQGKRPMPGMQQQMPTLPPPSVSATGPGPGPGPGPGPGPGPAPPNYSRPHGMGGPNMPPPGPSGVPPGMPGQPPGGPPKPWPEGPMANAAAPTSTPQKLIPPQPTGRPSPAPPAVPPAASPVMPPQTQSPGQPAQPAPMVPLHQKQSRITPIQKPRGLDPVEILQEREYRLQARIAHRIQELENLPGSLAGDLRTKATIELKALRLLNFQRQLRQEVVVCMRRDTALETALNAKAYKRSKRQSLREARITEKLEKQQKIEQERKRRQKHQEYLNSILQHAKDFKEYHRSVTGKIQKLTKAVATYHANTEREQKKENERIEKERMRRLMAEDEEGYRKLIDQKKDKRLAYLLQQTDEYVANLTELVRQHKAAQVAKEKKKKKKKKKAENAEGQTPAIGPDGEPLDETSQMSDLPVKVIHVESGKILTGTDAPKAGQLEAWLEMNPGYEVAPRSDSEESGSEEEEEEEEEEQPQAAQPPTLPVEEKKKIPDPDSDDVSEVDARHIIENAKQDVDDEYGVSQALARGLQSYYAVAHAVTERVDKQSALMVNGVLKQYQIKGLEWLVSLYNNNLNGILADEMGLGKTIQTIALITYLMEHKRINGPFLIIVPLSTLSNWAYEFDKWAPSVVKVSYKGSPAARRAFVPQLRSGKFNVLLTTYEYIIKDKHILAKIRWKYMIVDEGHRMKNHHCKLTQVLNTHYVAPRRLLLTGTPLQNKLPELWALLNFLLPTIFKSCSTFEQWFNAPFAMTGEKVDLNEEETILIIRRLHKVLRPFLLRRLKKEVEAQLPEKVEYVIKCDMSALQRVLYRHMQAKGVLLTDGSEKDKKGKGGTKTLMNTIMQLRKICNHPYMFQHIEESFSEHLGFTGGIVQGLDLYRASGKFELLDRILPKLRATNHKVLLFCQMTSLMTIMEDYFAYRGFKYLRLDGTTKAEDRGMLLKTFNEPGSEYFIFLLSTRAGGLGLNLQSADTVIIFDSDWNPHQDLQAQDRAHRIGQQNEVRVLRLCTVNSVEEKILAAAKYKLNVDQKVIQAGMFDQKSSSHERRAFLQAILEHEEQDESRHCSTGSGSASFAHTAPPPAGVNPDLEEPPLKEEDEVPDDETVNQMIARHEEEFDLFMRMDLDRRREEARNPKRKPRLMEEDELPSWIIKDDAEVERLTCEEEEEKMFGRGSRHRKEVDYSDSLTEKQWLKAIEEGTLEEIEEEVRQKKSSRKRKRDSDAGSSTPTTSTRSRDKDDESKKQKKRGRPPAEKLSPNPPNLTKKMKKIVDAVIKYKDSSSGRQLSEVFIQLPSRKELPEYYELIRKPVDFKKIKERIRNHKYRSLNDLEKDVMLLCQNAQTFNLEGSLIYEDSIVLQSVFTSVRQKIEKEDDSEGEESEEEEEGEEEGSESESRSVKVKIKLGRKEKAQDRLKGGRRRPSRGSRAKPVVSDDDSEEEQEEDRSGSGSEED

| Compound | pIC50 (BRG-1) | Emax (BRG-1) [%] | BRM Max % Inhibition (BRM) [%] | IC50 (BRM) [µM] | further results |
| --- | --- | --- | --- | --- | --- |
| C[C@@H]1CN(c2cccc(-c3csc(NC(=O)CNC(=O)c4ccn(C(C)(C)C)c4)n3)n2)C[C@H](C)O1 [Compound C, 1-(tert-butyl)-N-(2-((4-(6-(cis-2,6-dimethylmorpholino)pyridin-2-yl)thiazol-2-yl)amino)-2-oxoethyl)-1H-pyrrole-3-carboxamide] | – | – | – | – | tolerability / body weight change [1]: well tolerated with no body weight loss observed |
| CSCC[C@H](NC(=O)c1ccc(N)cc1)C(=O)Nc1nc(-c2cccc(-c3ccncc3)c2)cs1 [Compound A] | – | – | – | – | growth inhibition compared to clinical PKC (LXS196) and MEK (Selumetinib) inhibitors ([2]; 3 days, 0 to 10 micromolar): comparable growth inhibition of uveal melanoma cells as the clinical PKC and MEK inhibitors; onset of inhibition compared to clinical PKC and MEK inhibitors [2]: faster onset of inhibition than the clinical PKC and MEK inhibitors; sensitivity of cell lines to BRG1/BRM inhibition (growth) ([3]; uveal melanoma and hematologic cancer cell lines vs other tested cell lines, 0 to 10 micromolar): more sensitive to BRG1/BRM inhibition than the other tested cell lines; duration of growth inhibition ([3]; uveal melanoma and hematologic cancer cell lines): maintained through day 7 |
| CSCC[C@H](NC(=O)c1ccn(S(C)(=O)=O)c1)C(=O)Nc1nc(-c2cccc(-c3ccncc3)c2)cs1 [Compound B, (S)-1-(methylsulfonyl)-N-(4-(methylthio)-1-oxo-1-((4-(3-(pyridin-4-yl)phenyl)thiazol-2-yl)amino)butan-2-yl)-1H-pyrrole-3-carboxamide] | – | – | – | – | growth inhibition compared to clinical PKC (LXS196) and MEK (Selumetinib) inhibitors ([4]; 3 days, 0 to 10 micromolar): more potent effects on growth inhibition of uveal melanoma cells as compared to the clinical PKC and MEK inhibitors; onset of growth inhibition compared to clinical PKC and MEK inhibitors [4]: faster onset of growth inhibition than the clinical PKC and MEK inhibitors; growth inhibition of PKCi-resistant cell line ([5]; FIG. 7B): strong growth inhibition; sensitivity of PKCi-resistant cells relative to parental MP41 cells ([5]; FIG. 7B): more sensitive to Compound B than were the parental MP41 cells; growth inhibition in the uveal melanoma cell lines [6]: potent growth inhibition; growth inhibition of parental cell line (parental MP41 cells): strong growth inhibition |
| CC1(N)CCN(c2cccnc2NC(=O)c2nc(-c3ncccc3C(F)(F)F)cnc2N)CC1 [LXS196, reference compound] | – | – | – | – | tolerated concentration for growth, PKCi-resistant vs parental cells ([5]; FIG. 7A): could tolerate growth at higher concentrations of LXS196 than could the parental MP41 cell line |
| CN1C[C@@](C)(C#N)c2cc(C(=O)NCc3cc4nc(-c5ccccc5)ccc4cn3)ccc21 [Compound 96] | < 6.00 | 20 | 84 | > 1 | – |
| C[C@@]1(C#N)COCc2ccc(C(=O)NCc3cc4c(cn3)CCN(c3ccccc3)C4)cc21 [Compound 92] | < 6.00 | 64 | 95 | 0.1 to 0.5 | – |
| COc1cc(C(C)(C)C)ccc1-c1ccc2cnc(CNC(=O)c3ccc4c(c3)[C@](C)(C#N)COC4)cc2n1 [Compound 148] | < 6.00 | 32 | 90 | 0.1 to 0.5 | – |
| COc1cccc(-c2ccc3cnc(CNC(=O)c4ccc5c(c4)[C@](C)(C#N)COC5)cc3n2)c1 [Compound 91] | 6.00 to 6.30 | 85 | 97 | < 0.1 | – |

Now from value to compound, other results behind:

| pIC50 (BRG-1) | Emax (BRG-1) [%] | BRM Max % Inhibition (BRM) [%] | IC50 (BRM) [µM] | Compound | further results |
| --- | --- | --- | --- | --- | --- |
| 6.30 to 7.00 | 88 | 99 | < 0.1 | C[C@@]1(F)COCc2ccc(C(=O)NCc3cc4nc(-c5ccnc(N6CCOCC6)n5)ccc4cn3)cc21 [Compound 259] | – |
| 6.00 to 6.30 | 68 | 96 | 0.1 to 0.5 | C[C@@]1(C#N)COCc2ccc(C(=O)NCc3cc4nc(-c5cnn6ccccc56)ccc4cn3)cc21 [Compound 493] | – |
| < 6.00 | 72 | 94 | 0.1 to 0.5 | Cc1ccn(-c2ccc3cnc(CNC(=O)c4ccc5c(c4)[C@](C)(C#N)COC5)cc3n2)n1 [Compound 503] | – |
| 6.00 to 6.30 | 72 | 98 | 0.1 to 0.5 | Cc1cc(-c2ccc3cnc(CNC(=O)c4ccc5c(c4)[C@](C)(C#N)COC5)cc3n2)n[nH]1 [Compound 264] | – |
| 6.30 to 7.00 | 87 | 99 | < 0.1 | COc1nn([C@H]2C[C@H](F)C2)cc1-c1ccc2cnc(CNC(=O)c3ccc4c(c3)[C@](C)(C#N)COC4)cc2n1 [Compound 185] | – |
| 6.00 to 6.30 | 62 | 90 | 0.1 to 0.5 | Cn1cc(-c2ccc3cnc(CNC(=O)c4ccc5c(c4)[C@](C)(C#N)COC5)cc3n2)c(F)n1 [Compound 364] | – |
| 6.00 to 6.30 | 77 | 99 | < 0.1 | C[C@@]1(F)COCc2ccc(C(=O)NCc3cc4nc(-c5cccc(C(F)F)n5)ccc4nn3)cc21 [Compound 254] | – |
| 6.00 to 6.30 | 62 | 92 | 0.1 to 0.5 | C[C@@]1(F)COCc2ncc(C(=O)NCc3cc4nc(-c5cncc(N6CCC6)n5)ccc4cn3)cc21 [Compound 395] | – |
| > 7.00 | 100 | 101 | < 0.1 | CN(C)c1cccc(-c2ccc3cnc(CNC(=O)c4cnc5c(c4)[C@](F)(C(F)F)COC5)cc3n2)n1 [Compound 224] | – |
| > 7.00 | 98 | 104 | < 0.1 | C[C@@]1(C#N)COCc2c(F)cc(C(=O)NCc3cc4cc(-c5cncc(N6CCC6)n5)ccc4cn3)cc21 [Compound 270] | – |
| 6.30 to 7.00 | 82 | 96 | 0.1 to 0.5 | C[C@@]1(C#N)COCc2ccc(C(=O)NCc3cc4cc(-c5ccnc(C6CC6)c5F)cnc4cn3)cc21 [Compound 280] | – |
| 6.30 to 7.00 | 99 | 100 | < 0.1 | Cn1c(=O)ccc2ccc(-c3ccc4cnc(CNC(=O)c5ccc6c(c5)[C@](C)(C#N)COC6)cc4n3)nc21 [Compound 180] | – |
| 6.00 to 6.30 | 74 | 93 | 0.1 to 0.5 | C[C@@]1(C#N)COCc2ccc(C(=O)NCc3cc4nc(-c5cncc(C(F)F)n5)ccc4cn3)cc21 [Compound 355] | – |
